Assay results published in paper PMC7613515, “Reading and erasing of the phosphonium analogue of trimethyllysine by epigenetic proteins” (Communications Chemistry, 2022).

Key:
[1] = biological target: T1, SGF29TTD (R115–K293) (Homo sapiens, UniProt Q96ES7); test: ITC, association of histone H3 peptides with SGF29TTD; assay type: binding
T1 construct: SGF29TTD (R115–K293); made in house; host or cells: E. coli
T1 sequence (Q96ES7 115-293): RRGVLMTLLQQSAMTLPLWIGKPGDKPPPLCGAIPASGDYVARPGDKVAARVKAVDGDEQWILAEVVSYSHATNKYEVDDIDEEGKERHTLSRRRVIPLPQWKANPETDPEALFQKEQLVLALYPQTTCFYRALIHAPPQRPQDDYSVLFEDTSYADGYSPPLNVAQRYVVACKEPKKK
From the text: (§1) We investigated the thermodynamics of association of the H3KP4me3 peptide with five representative human reader domains containing either a PHD zinc finger or TTD, i.e. KDM5APHD3 (JARID1A-PHD3, residues M1489–V1641)[10], TAF3PHD (R857–K924)[22], BPTFPHD (L2583–N2751)[23], SGF29TTD (R115–K293)[24] and KDM4ATTD (JMJD2A, Q897-P1011)[25], selected on the basis of their preference for binding Ν^ε-trimethyllysine over other (non)methylation marks (Kme0 < Kme1 < Kme2 < Kme3), and their domain and aromatic cage diversity. The recombinant readers were produced in E. coli following reported procedures. Isothermal titration calorimetric (ITC) analyses were used to determine the dissociation constant (Kd), the Gibbs free energy of binding (ΔG°), the enthalpy of binding (ΔH°), and the entropy of binding (ΔS°). […] (Table 1, Fig. 2, Supplementary Fig. 1).
(§2) The following purified reader domains: TAF3PHD (R857-K924), KDM5APHD3 (JARID1A, M1489-V1641), BPTFPHD (L2583-N2751), KDM4ATTD (JMJD2A, Q897-P1011) and SGF29TTD (R115-K293) were prepared as reported[10],[22]–[26]. The histone lysine demethylase were produced and purified to high purity via reported procedures KDM3A (JMJD1A, T515-S1317)[41], KDM4AJmjC[39] (JMJD2A, M1-L359), KDM4EJmjC (JMJD2E, M1–Q337)[34] and KDM7B[40] (PHF8, M37-N483 [NP_001171]). KDM5DJmjC was produced using an N-terminal hexa-His tagged KDM4D (KDM4DM1-L358) DNA construct, transformed into BL21(DE3) competent cells for recombinant protein production. Colonies were used to inoculate of LB media (50 mL) containing kanamycin (50 µg·mL^−1) and chloramphenicol (34 µg·mL^−1), which was placed in a 37 °C shaker overnight. The starter culture (10 mL) was used to inoculate TB media (6 × 1 L) containing kanamycin (50 µg·mL^−1) in 2 L baffled shaker flasks. After reaching an of OD600 of ~0.8, the temperature was reduced to 18 °C; at OD600 ~0.9 the cells were induced by the IPTG (0.5 mM) addition. After shaking overnight, the culture was centrifuged (5000 rpm, 10 mins), the media was decanted, and the cell pellet was suspended in Lysis Buffer [HEPES (50 mM), NaCl (500 mM), imidazole (20 mM), glycerol (5%) and TCEP (0.5 mM) in water (pH 7.4)]. The suspension was lysed by passaging through a high-pressure cell breaker (Avestin – EmulsiFlex-C5) for three rounds. The lysate was cleared by centrifugation (60 minutes, 36,000 × g, 4 °C), then loaded onto a Ni NTA gravity column. After extensive rinsing of the Ni-NTA gravity column with lysis buffer, the His-tagged protein was eluted in lysis buffer containing 300 mM imidazole. The eluted protein was concentrated and subjected to gel filtration chromatography using an AKTA Xpress system, an S200 16/600 gel filtration column, and GF buffer [HEPES (50 mM), NaCl (150 mM), glycerol (5%) and TCEP (0.5 mM) in water (pH 7.4)]. The protein identity was verified by LC-MS (ESI-TOF) observing a mass of 43759.7 Da, in accord with the predicted mass of 43751.6 Da.
ITC studies followed a reported procedure. The buffer used corresponded to that used in the final protein purification step. […] Histone peptide titrations were performed with the same reader batches. Solutions of the reader in buffer (25–40 µM) and of the histone H3 peptide (350–600 µM) in buffer were prepared. […] Heats of dilution for histone peptides determined in control experiments were subtracted from the titration binding data. […]

[2] = biological target: T2, KDM4ATTD (JMJD2A, Q897-P1011) (Homo sapiens, UniProt O75164); test: ITC, association of histone H3 peptides with KDM4ATTD; assay type: binding
T2 construct: KDM4ATTD (JMJD2A, Q897-P1011); made in house; host or cells: E. coli
T2 sequence (O75164 897-1011): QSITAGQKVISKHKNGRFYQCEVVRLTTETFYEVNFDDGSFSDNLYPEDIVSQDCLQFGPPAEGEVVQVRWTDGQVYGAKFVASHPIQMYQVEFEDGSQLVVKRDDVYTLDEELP
From the text: as §1, §2
ITC studies followed a reported procedure. The buffer used corresponded to that used in the final protein purification step. Briefly, TAF3PHD and KDM4ATTD: [Tris (50 mM) in water (pH 7.5)]; KDM5APHD3 and BTPFPHD: [Tris (50 mM), NaCl (20 mM) in water (pH 7.5)]; [Tris (25 mM), NaCl (50 mM), 1,4-dithiothreitol (1.0 mM) in water (pH 7.5)]. Experiments were conducted using ITC200 automated (GE Healthcare Life Sciences, USA) instrument at 25 °C. Histone peptide titrations were performed with the same reader batches. Solutions of the reader in buffer (25–40 µM) and of the histone H3 peptide (350–600 µM) in buffer were prepared. The prepared solutions were plated into a 96-well plate and inserted into the instrument for analysis. Experiments were performed according to manufacturer’s default settings: Plate pre-rinse syringe clean. A total of 19 injections were performed; each experiment was repeated 3–5 times. Heats of dilution for histone peptides determined in control experiments were subtracted from the titration binding data. […]

[3] = system: KDM4DJmjC (M1–L358); test: MALDI-TOF demethylation assay, KDM4DJmjC; assay type: biochemical, human; details: KDM4DJmjC 2.4 µM, peptide 5.0 µM, 1 hr, duplicates
Protocol: A Bruker Daltonics MALDI-TOF/TOF AutoflexSpeed machine and Bruker MTP 384 target plates (polished steel BC, Part: 8280781) were used. The machine was controlled using Flex control (v. 3.4 build 135.10) and Compass for flex series (v. 1.4) software. Measurements were in the positive ion mode with the reflectron mode enabled. Incubations employed ProxiPlate-384™ (Perkin Elmer) plates into which was pipetted a solution of [H3_1-15K9me3 (10.0 µM), (+)-sodium L-ascorbate (1.0 mM), (NH4)2Fe(II)(SO4)2 (100 µM), di-sodium 2-oxoglutarate (200 µM) in buffer (HEPES (50 mM)) in MilliQ (pH 7.5)] (5.0 µL) using ClipTip™ (Thermo Scientific™) pipette tips and E1-ClipTip™ (Thermo Scientific™). The enzyme solution [KDM4EJmjC (1.0 µM) in HEPES (50 mM)] (5.0 µL) was added to initiate reaction at 37 °C. Reactions were quenched with formic acid in water (2%, 5.0 µL).

[4] = 25 °C, H3 1-10 peptide, pH 7.5, from 3 to 5 experiments, ± SD
[5] = 25 °C, H3 1-10 peptide, Tris (50 mM), pH 7.5, from 3 to 5 experiments, ± SD

C[C@H](N)C(=O)N[C@@H](CCCNC(=N)N)C(=O)N[C@H](C(=O)N[C@@H](CCCC[P+](C)(C)C)C(=O)N[C@@H](CCC(N)=O)C(=O)N[C@H](C(=O)N[C@@H](C)C(=O)N[C@@H](CCCNC(=N)N)C(=O)N[C@@H](CCCCN)C(=O)N[C@@H](CO)C(N)=O)[C@@H](C)O)[C@@H](C)O [H3KP4me3]
-TΔS° [1, 4]: 1.0 ± 0.1 kcal/mol | ΔG° [1, 4]: -7.6 ± 0.1 kcal/mol | ΔH° [1, 4]: -8.6 ± 0.1 kcal/mol | binding affinity relative to H3K4me3 ([1]; SGF29TTD): comparable binding affinity for H3K4me3 and H3KP4me3 | -TΔS° [2, 5]: 8.8 ± 0.1 kcal/mol | ΔG° [2, 5]: -8.9 ± 0.1 kcal/mol | ΔH° [2, 5]: -17.7 ± 0.1 kcal/mol | fold stronger binding (ΔKd), H3KP4me3 versus H3K4me3 ([2]; KDM4ATTD): ~ 12 fold | ΔΔH°, H3KP4me3 relative to H3K4me3 ([2]; KDM4ATTD): -4.7 kcal/mol

ARTKQTAR(KPme3)STGGKA [H3KP9me3, histone H3 residues 1–15 with trimethylphosphonium lysine analogue at position 9]
demethylation [3]: substantial turnover to H3KP9me2
